This passage reports Ki and IC50 results from ChEMBL document CHEMBL2057112, “Enamino-oxindole HIV protease inhibitors” (Bioorg Med Chem Lett, 2012).

The structures appear in SMILES notation.

Experiment [1] can be described thus: Inhibition of Human immunodeficiency virus protease M10 mutant expressed in Escherichia coli using ArgGlu(EDANS)SerGlnAsnTyrProIleValGlnLys(DABCYL)Arg as substrate preincubated with compound for 0.5 to 1 min measured by fluorometric analysis at pH 6.5.
The test system of experiment [2] is Human immunodeficiency virus 1. As to the kind of experiment: Antiviral activity against Human immunodeficiency virus 1 HXB2 expressing protease M8 mutant infected in human MT4 cells after 5 days by MTT assay. The class given is functional, organism-based. The following applies: Human immunodeficiency virus 1, HXB2, MT4, 120 h.
Experiment [3] is described as follows: Inhibition of wild type Human immunodeficiency virus protease expressed in Escherichia coli using ArgGlu(EDANS)SerGlnAsnTyrProIleValGlnLys(DABCYL)Arg as substrate preincubated with compound for 0.5 to 1 min measured by fluorometric analysis at pH 6.5.
The test system of experiment [4] is Human immunodeficiency virus 1. As to the kind of experiment: Antiviral activity against Human immunodeficiency virus 1 HXB2 expressing wild type protease infected in human MT4 cells after 5 days by MTT assay. Format: functional, organism-based. The settings on record: Human immunodeficiency virus 1, HXB2, MT4, 120 h. (In general: Formazan colour is commonly taken as a measure of viable cells.)

Experiment [5] relates to Human immunodeficiency virus 1. Kind of experiment: Antiviral activity against Human immunodeficiency virus 1 HXB2 expressing protease M9 mutant infected in human MT4 cells after 5 days by MTT assay. Format: functional, organism-based. The settings on record: Human immunodeficiency virus 1, HXB2, MT4, 120 h.
Experiment [6] is described as follows: Inhibition of Human immunodeficiency virus protease M9 mutant expressed in Escherichia coli using ArgGlu(EDANS)SerGlnAsnTyrProIleValGlnLys(DABCYL)Arg as substrate preincubated with compound for 0.5 to 1 min measured by fluorometric analysis at pH 6.5.
Experiment [7] deals with Human immunodeficiency virus 1. As to the kind of experiment: Antiviral activity against Human immunodeficiency virus 1 HXB2 expressing protease M10 mutant infected in human MT4 cells after 5 days by MTT assay. The settings on record: Human immunodeficiency virus 1, HXB2, MT4, 120 h. Format: functional, organism-based.
Experiment [8] in a line: Inhibition of Human immunodeficiency virus protease M8 mutant expressed in Escherichia coli using ArgGlu(EDANS)SerGlnAsnTyrProIleValGlnLys(DABCYL)Arg as substrate preincubated with compound for 0.5 to 1 min measured by fluorometric analysis at pH 6.5.

For orientation: Ki means the dissociation constant of the complex between target and ligand, obtained from inhibition or displacement. A word on the IC50: it is the concentration that inhibits the measured activity by half. A high value points to lower potency. With `CC(C)CN(C[C@@H](O)[C@H](Cc1ccccc1)NC(=O)O[C@H]1CO[C@H]2OCC[C@H]21)S(=O)(=O)c1ccc2c(c1)C(=CN(C)C)C(=O)N2` (mixture of isomers), the Ki in experiment [1] was less than 1 nM; in experiment [3], less than 0.1 nM; in experiment [6] it was less than 0.3 nM. Further, the IC50 in experiment [2] turned out to be 90 nM; in experiment [4], 93 nM; in experiment [5] it was 65 nM; in experiment [7], 70 nM.

As for `CC(C)CN(C[C@@H](O)[C@H](Cc1ccccc1)NC(=O)O[C@H]1CO[C@H]2OCC[C@H]21)S(=O)(=O)c1ccc2c(c1)C(=CN)C(=O)N2` (mixture of isomers), the figures for the Ki in experiment [1], in experiment [3] and in experiment [6] were 3 nM, less than 0.1 nM and less than 0.3 nM, respectively. Moreover, the IC50 is 200 nM in experiment [2], 300 nM in experiment [4], 200 nM in experiment [5] and 180 nM in experiment [7].

As to `CCNC=C1C(=O)Nc2ccc(S(=O)(=O)N(CC(C)C)C[C@@H](O)[C@H](Cc3ccccc3)NC(=O)O[C@H]3CO[C@H]4OCC[C@H]43)cc21` (mixture of isomers), the inhibition constant Ki is less than 1 nM in experiment [1], less than 0.1 nM in experiment [3] and less than 0.3 nM in experiment [6]. The IC50 in experiment [2] turned out to be 35 nM; in experiment [4] it was 28 nM; in experiment [5], 27 nM; in experiment [7] it was 80 nM.

For the compound `CC(C)CN(C[C@@H](O)[C@H](Cc1ccccc1)NC(=O)O[C@H]1CO[C@H]2OCC[C@H]21)S(=O)(=O)c1ccc2c(c1)C(=CNCCN(C)C)C(=O)N2` (mixture of isomers), the Ki in experiment [1] is 1.7 nM; in experiment [8] it was 0.57 nM; in experiment [3] it was less than 0.1 nM; in experiment [6], less than 0.3 nM. Besides, in experiment [4], the IC50 was more than 400 nM.

With `CC(C)CN(C[C@@H](O)[C@H](Cc1ccccc1)NC(=O)O[C@H]1CO[C@H]2OCC[C@H]21)S(=O)(=O)c1ccc2c(c1)C(=CNCCO)C(=O)N2` (mixture of isomers), the inhibition constant Ki in experiment [1] is less than 1 nM; in experiment [8], 0.11 nM; in experiment [3], less than 0.1 nM; in experiment [6] it was less than 0.3 nM. The IC50 in experiment [4] is more than 400 nM; in experiment [5], 800 nM; in experiment [7] it was 400 nM.

As for `CC(C)CN(C[C@@H](O)[C@H](Cc1ccccc1)NC(=O)O[C@H]1CO[C@H]2OCC[C@H]21)S(=O)(=O)c1ccc2c(c1)C(=CNCc1nc3ccccc3[nH]1)C(=O)N2` (mixture of isomers), the Ki was less than 1 nM in experiment [1], less than 0.1 nM in experiment [3] and less than 0.3 nM in experiment [6]. This compound registered a 50% inhibitory concentration (IC50) in experiment [4] of more than 400 nM.

Regarding `Cc1nc(CNC=C2C(=O)Nc3ccc(S(=O)(=O)N(CC(C)C)C[C@@H](O)[C@H](Cc4ccccc4)NC(=O)O[C@H]4CO[C@H]5OCC[C@H]54)cc32)cs1` (mixture of isomers), the inhibitory constant (Ki) in experiment [1] was less than 1 nM; in experiment [3] it was less than 0.1 nM; in experiment [6], less than 0.3 nM. For the same compound, the IC50 in experiment [2] came to 40 nM; in experiment [4] it was 45 nM; in experiment [5], 30 nM; in experiment [7], 29 nM.

In the case of `CC(C)CN(C[C@@H](O)[C@H](Cc1ccccc1)NC(=O)O[C@H]1CO[C@H]2OCC[C@H]21)S(=O)(=O)c1ccc2c(c1)C(=CNCc1ccncc1)C(=O)N2` (mixture of isomers), the inhibitory constant (Ki) is less than 1 nM in experiment [1], less than 0.1 nM in experiment [3] and less than 0.3 nM in experiment [6]. Moreover, the IC50 in experiment [2] was 270 nM; in experiment [4], 300 nM; in experiment [5], 220 nM; in experiment [7] it was 110 nM.

For the compound `CCN(C=C1C(=O)Nc2ccc(S(=O)(=O)N(CC(C)C)C[C@@H](O)[C@H](Cc3ccccc3)NC(=O)O[C@H]3CO[C@H]4OCC[C@H]43)cc21)CC` (mixture of isomers), the inhibitory constant (Ki) was less than 1 nM in experiment [1], less than 0.1 nM in experiment [3] and less than 0.3 nM in experiment [6]. For the same compound, the 50% inhibitory concentration (IC50) in experiment [2] was found to be 40 nM; in experiment [4] it was 38 nM; in experiment [5] it was 21 nM; in experiment [7], 41 nM.
